Test results reported in ChEMBL document CHEMBL5505995, “Discovery of novel urea derivatives as ferroptosis and autophagy inducer for human colon cancer treatment” (Eur J Med Chem, 2024).
Calls of active or inactive are those of the source. No cut-off for these calls is given here.

Key:
[1] = test system: HT-29; assay: Antiproliferative activity against human HT-29 cells assessed as inhibition of cell growth incubated for 48 hrs by MTT assay; format: functional, cell-based; settings: HT-29, 48 h
[2] = test system: HeLa; assay: Antiproliferative activity against human HeLa cells assessed as inhibition of cell growth incubated for 48 hrs by MTT assay; format: functional, cell-based
[3] = test system: MCF7; assay: Antiproliferative activity against human MCF7 cells assessed as inhibition of cell growth incubated for 48 hrs by MTT assay; format: functional, cell-based; settings: MCF7, 48 h
[4] = test system: HT-29; assay: Induction of apoptosis in human HT-29 cells at 1 to 4 uM incubated for 48 hrs by Annexin V-FITC/PI staining based flow cytometry; format: functional, cell-based; settings: dose 1-4 µM
[5] = test system: HT-29; assay: Induction of necrosis in human HT-29 cells incubated for 48 hrs by MTT assay; format: functional, cell-based
[6] = test system: HT-29; assay: Induction of cell death in human HT-29 cells incubated for 48 hrs in presence of ferroptosis inhibitor deferoxamine by MTT assay; format: functional, cell-based
[7] = test system: HT-29; assay: Induction of ferroptosis in human HT-29 cells assessed as increase in intracellular malondialdehyde accumulation incubated for 48 hrs; format: functional, cell-based
[8] = test system: HT-29; assay: Induction of ferroptosis in human HT-29 cells assessed as decrease in GPx level at 1 to 4 uM incubated for 48 hrs; format: functional, cell-based; settings: dose 1-4 µM
[9] = test system: HT-29; assay: Induction of ferroptosis in human HT-29 cells assessed as decrease in intracellular GSH level at 1 to 4 uM incubated for 48 hrs; format: functional, cell-based; settings: dose 1-4 µM
[10] = test system: HT-29; assay: Induction of ferroptosis in human HT-29 cells assessed as increase in intracellular iron level incubated for 48 hrs in presence of ferroptosis inhibitor deferoxamine; format: functional, cell-based
[11] = test system: HT-29; assay: Induction of ferroptosis in human HT-29 cells assessed as decrease in GPx level incubated for 48 hrs in presence of ferroptosis inhibitor deferoxamine; format: functional, cell-based
[12] = test system: HT-29; assay: Induction of ferroptosis in human HT-29 cells assessed as decrease in GPx level incubated for 48 hrs in presence of ferroptosis inhibitor CPX; format: functional, cell-based
[13] = test system: HT-29; assay: Induction of ferroptosis in human HT-29 cells assessed as mitochondrial morphological change incubated for 48 hrs by transmission electron microscopic analysis; format: functional, cell-based
[14] = test system: HT-29; assay: Induction of ferroptosis in human HT-29 cells assessed as increase in mitochondrial membrane density incubated for 48 hrs by transmission electron microscopic analysis; format: functional, cell-based
[15] = test system: HT-29; assay: Induction of autophagy in human HT-29 cells assessed as upregulation of ATG5 protein expression incubated for 48 hrs by Western blotting analysis; format: functional, cell-based
[16] = test system: HT-29; assay: Antiproliferative activity against human HT-29 cells assessed as inhibition of cell growth incubated for 48 hrs in presence of autophagy inhibitor 3-methyladenine by MTT assay; format: functional, cell-based
[17] = test system: HT-29; assay: Antiproliferative activity against human HT-29 cells assessed as inhibition of cell growth incubated for 48 hrs in presence of autophagy inhibitor Spautin-1 by MTT assay; format: functional, cell-based
[18] = test system: HT-29; assay: Induction of ferroptosis in human HT-29 cells assessed as increase in intracellular malondialdehyde accumulation incubated for 48 hrs in presence of ROS scavenger NAC; format: functional, cell-based
[19] = test system: Cell membrane; assay: Induction of mitochondrial membrane potential loss in human HT-29 cells assessed as decrease in orange-red fluorescence incubated for 48 hrs by JC-1 staining based flow cytometry; format: cell membranes

SMILES: COc1ccc2c(c1)NCCN2C(=O)NCCCl
- IC50 [1]: 1.97 µM
- IC50 [2]: 6.18 µM
- IC50 [3]: 7.01 µM
- Activity [4]: inactive
- Activity [5]: Active
- Activity [6]: inactive
- Activity [7]: Dose-Dependent Effect
- Activity [8]: Active
- Activity [9]: Active
- Activity [10]: inactive
- Activity [11]: inactive
- Activity [12]: inactive
- Activity [13]: Active
- Activity [14]: Active
- Activity [15]: Dose-Dependent Effect
- Activity [16]: inactive
- Activity [17]: inactive
- Activity [18]: inactive
- Activity [19]: Dose-Dependent Effect
